According to patent publication US20250288589A1, “PYRIDOPYRIMIDINES AND METHODS OF THEIR USE” (Kineta, Inc., priority 2021, published 2025):

target: T1, full-length human PIKFYVE (Homo sapiens, UniProt Q9Y2I7, L932S/Q1183K/Q995L/S1033A/S696N/T998S); test: PIKfyve biochemical assay (ADP-Glo Kinase assay, Carna Biosciences); conditions: GST-PIKFYVE, 10 μM to 3 nM in duplicate, read-out: hPIKfyve IC50
T1 construct: A full-length human PIKFYVE [1-2098(end) amino acids and S696N, L932S, Q995L, T998S, S1033A and Q1183K; purchased Carna Biosciences; host or cells: baculovirus expression system
Description: (§1) PIKfyve Biochemical Assay. The biochemical PIKFyve inhibition assays were run by Carna Biosciences according to proprietary methodology based on the Promega ADP-Glo™ Kinase assay. A full-length human PIKFYVE [1-2098(end) amino acids and S696N, L932S, Q995L, T998S, S1033A and Q1183K of the protein having the sequence set forth in NCBI Reference Sequence No. NP_055855.2] was expressed as N-terminal GST-fusion protein (265 kDa) using baculovirus expression system. GST-PIKFYVE was purified by using glutathione sepharose chromatography and used in an ADP-Glo™ Kinase assay (Promega). Reactions were set up by adding the test compound solution, substrate solution, ATP solution and kinase solution, each at 4× final concentrations. Reactions were prepared with assay buffer (50 mM MOPS, 1 mM DTT, pH7.2), mixed, and incubated in black 384 well polystyrene plates for 1 hour at room temperature. ADP-Glo™ reagent was then added for 40 minutes, followed by kinase detection reagent for an additional 40 minutes. The kinase activity was evaluated by detecting relative light units on a luminescence plate reader. Samples were run in duplicate from 10 μM to 3 nM. […] IC50 values were calculated from concentration vs % inhibition curves by fitting to a four-parameter logistic curve.
as §1, with “The” for “PIKfyve Biochemical Assay. The”, “accession number” for “the protein having the sequence set forth in NCBI Reference Sequence No.”, “uM” for “μM”

T1 sequence (Q9Y2I7 whole entry S696N/L932S/Q995L/T998S/S1033A/Q1183K): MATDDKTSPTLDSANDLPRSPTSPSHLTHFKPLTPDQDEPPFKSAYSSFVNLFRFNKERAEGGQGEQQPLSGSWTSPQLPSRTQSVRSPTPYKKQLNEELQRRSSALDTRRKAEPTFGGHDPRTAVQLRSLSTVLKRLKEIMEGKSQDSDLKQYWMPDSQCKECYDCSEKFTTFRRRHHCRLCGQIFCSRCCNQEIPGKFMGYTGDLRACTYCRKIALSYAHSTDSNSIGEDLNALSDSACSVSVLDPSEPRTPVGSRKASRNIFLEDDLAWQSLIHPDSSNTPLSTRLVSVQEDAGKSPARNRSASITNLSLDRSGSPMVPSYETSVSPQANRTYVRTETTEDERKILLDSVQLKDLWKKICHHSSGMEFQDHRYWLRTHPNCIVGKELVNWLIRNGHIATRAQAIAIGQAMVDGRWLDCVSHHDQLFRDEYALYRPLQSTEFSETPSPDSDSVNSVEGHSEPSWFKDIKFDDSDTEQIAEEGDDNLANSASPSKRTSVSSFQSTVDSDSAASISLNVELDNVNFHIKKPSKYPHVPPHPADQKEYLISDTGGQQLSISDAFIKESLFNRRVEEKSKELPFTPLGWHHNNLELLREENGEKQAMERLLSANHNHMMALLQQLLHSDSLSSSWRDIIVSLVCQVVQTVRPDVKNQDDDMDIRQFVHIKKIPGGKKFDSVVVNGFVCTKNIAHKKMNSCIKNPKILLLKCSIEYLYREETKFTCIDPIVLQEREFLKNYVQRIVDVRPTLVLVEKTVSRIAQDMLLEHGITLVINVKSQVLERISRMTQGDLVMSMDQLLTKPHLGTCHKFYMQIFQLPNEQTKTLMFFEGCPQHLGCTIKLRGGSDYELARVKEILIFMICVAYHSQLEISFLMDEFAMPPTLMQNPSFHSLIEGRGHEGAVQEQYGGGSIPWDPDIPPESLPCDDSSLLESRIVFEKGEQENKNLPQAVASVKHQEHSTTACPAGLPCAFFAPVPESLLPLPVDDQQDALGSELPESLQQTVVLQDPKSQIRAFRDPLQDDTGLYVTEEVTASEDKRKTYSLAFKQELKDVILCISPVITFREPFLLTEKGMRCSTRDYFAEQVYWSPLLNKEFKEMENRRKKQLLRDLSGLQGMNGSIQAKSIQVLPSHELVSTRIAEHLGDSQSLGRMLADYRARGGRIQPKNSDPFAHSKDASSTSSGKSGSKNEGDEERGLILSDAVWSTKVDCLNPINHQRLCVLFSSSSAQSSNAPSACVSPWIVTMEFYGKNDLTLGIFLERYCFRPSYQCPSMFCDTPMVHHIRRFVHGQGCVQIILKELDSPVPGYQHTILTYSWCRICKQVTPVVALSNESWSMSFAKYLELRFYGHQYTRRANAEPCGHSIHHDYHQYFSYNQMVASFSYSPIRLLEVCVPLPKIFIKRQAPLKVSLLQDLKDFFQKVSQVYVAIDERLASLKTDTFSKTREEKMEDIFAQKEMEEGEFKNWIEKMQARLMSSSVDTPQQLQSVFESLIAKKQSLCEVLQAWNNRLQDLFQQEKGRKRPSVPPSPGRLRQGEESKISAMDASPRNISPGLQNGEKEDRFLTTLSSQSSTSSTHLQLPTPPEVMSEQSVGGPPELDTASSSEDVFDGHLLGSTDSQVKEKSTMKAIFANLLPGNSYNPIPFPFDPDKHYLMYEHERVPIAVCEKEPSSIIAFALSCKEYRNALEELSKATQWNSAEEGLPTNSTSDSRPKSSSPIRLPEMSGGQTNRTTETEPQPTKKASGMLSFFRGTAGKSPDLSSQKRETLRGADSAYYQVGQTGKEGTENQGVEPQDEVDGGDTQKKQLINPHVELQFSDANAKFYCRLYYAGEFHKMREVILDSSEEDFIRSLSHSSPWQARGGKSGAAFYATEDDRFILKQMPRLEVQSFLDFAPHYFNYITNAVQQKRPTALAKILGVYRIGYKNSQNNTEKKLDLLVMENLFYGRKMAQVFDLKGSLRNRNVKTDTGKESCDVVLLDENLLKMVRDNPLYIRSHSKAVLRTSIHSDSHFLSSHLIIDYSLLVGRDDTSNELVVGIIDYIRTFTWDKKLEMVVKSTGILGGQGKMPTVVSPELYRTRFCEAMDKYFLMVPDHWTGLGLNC

Question: Which IC50 does the source give for CC(C)(C)OC(=O)N1CCC=C(c2ccn(-c3nc(N4CCOCC4)c4ncccc4n3)n2)C1 [Compound 5, tert-butyl 3-(1-(4-morpholinopyrido[3,2-d]pyrimidin-2-yl)-1H-pyrazol-3-yl)-5,6-dihydropyridine-1(2H)-carboxylate] here?
Answer: > 10000 nM

Question: Which IC50 does the source give for c1ccc(-c2ccn(-c3nc(N4CCOCC4)c4nc(C5CCOCC5)ccc4n3)n2)cc1 [Compound 9, 4-[2-(3-phenylpyrazol-1-yl)-6-tetrahydropyran-4-yl-pyrido[3,2-d]pyrimidin-4-yl]morpholine] here?
Answer: 10 to 100 nM

Question: Which IC50 does the source give for c1ccc(-c2cnn(-c3nc(N4CCOCC4)c4ncc(C5CCOCC5)cc4n3)c2)cc1 [Compound 10, 4-[2-(4-phenylpyrazol-1-yl)-7-tetrahydropyran-4-yl-pyrido[3,2-d]pyrimidin-4-yl]morpholine] here?
Answer: < 10 nM

Question: How did the IC50 turn out when c1cncc(-c2ccn(-c3nc(N4CCOCC4)c4ncccc4n3)n2)c1 [Compound 13, 4-(2-(3-(pyridin-3-yl)-1H-pyrazol-1-yl)pyrido[3,2-d]pyrimidin-4-yl)morpholine] was run?
Answer: 1000 to 10000 nM

Question: How did the IC50 turn out when c1cnc2c(N3CCOCC3)nc(-n3ccc(-c4ccncc4)n3)nc2c1 [Compound 14, 4-(2-(3-(pyridin-4-yl)-1H-pyrazol-1-yl)pyrido[3,2-d]pyrimidin-4-yl)morpholine] was run?
Answer: 1000 to 10000 nM

Question: With COc1cccc(-c2ccn(-c3nc(N4CCOCC4)c4ncc(C5=CCOCC5)cc4n3)n2)c1 [Compound 16, 4-(7-(3,6-dihydro-2H-pyran-4-yl)-2-(3-(3-methoxyphenyl)-1H-pyrazol-1-yl)pyrido[3,2-d]pyrimidin-4-yl)morpholine] as the molecule, how does the IC50 read?
Answer: < 10 nM

Question: How did the IC50 turn out when COc1ccc(-c2ccn(-c3nc(N4CCOCC4)c4ncccc4n3)n2)cc1 [Compound 17, 4-(2-(3-(4-methoxyphenyl)-1H-pyrazol-1-yl)pyrido[3,2-d]pyrimidin-4-yl)morpholine] was run?
Answer: 100 to 1000 nM

Question: With CC(C)c1ccn(-c2nc(N3CCOCC3)c3ncccc3n2)n1 [Compound 18, 4-(2-(3-isopropyl-1H-pyrazol-1-yl)pyrido[3,2-d]pyrimidin-4-yl)morpholine] as the molecule, how does the IC50 read?
Answer: > 10000 nM

Question: Fc1ccccc1-c1ccn(-c2nc(N3CCOCC3)c3ncc(C4CCOCC4)cc3n2)n1 [Compound 19, 4-[2-[3-(2-fluorophenyl)pyrazol-1-yl]-7-tetrahydropyran-4-yl-pyrido[3,2-d]pyrimidin-4-yl]morpholine] was tested. Which IC50 did it give?
Answer: 100 to 1000 nM

Question: Fc1ccc(-c2ccn(-c3nc(N4CCOCC4)c4ncc(C5CCOCC5)cc4n3)n2)cc1 [Compound 20, 4-[2-[3-(4-fluorophenyl)pyrazol-1-yl]-7-tetrahydropyran-4-yl-pyrido[3,2-d]pyrimidin-4-yl]morpholine] was tested. Which IC50 did it give?
Answer: 10 to 100 nM

Question: How did the IC50 turn out when c1ccc(-c2ccn(-c3nc(N4CCOCC4)c4ncc(C5CCOCC5)cc4n3)n2)nc1 [Compound 21, 4-[2-[3-(2-pyridyl)pyrazol-1-yl]-7-tetrahydropyran-4-yl-pyrido[3,2-d]pyrimidin-4-yl]morpholine] was run?
Answer: 100 to 1000 nM

Question: Fc1cccc(-c2ccn(-c3nc(N4CCOCC4)c4ncc(C5CCOCC5)cc4n3)n2)c1 [Compound 22, 4-[2-[3-(3-fluorophenyl)pyrazol-1-yl]-7-tetrahydropyran-4-yl-pyrido[3,2-d]pyrimidin-4-yl]morpholine] was tested. Which IC50 did it give?
Answer: 10 to 100 nM

Question: Which IC50 does the source give for COc1cccc(-c2ccn(-c3nc(N4CCOCC4)c4ncccc4n3)n2)c1 [Compound 27, 4-(2-(3-(3-methoxyphenyl)-1H-pyrazol-1-yl)pyrido[3,2-d]pyrimidin-4-yl)morpholine] here?
Answer: 10 to 100 nM

Question: How did the IC50 turn out when COc1cccc(-c2cnn(-c3nc(N4CCOCC4)c4ncccc4n3)c2)c1 [Compound 28, 4-(2-(4-(3-methoxyphenyl)-1H-pyrazol-1-yl)pyrido[3,2-d]pyrimidin-4-yl)morpholine] was run?
Answer: < 10 nM

Question: With COc1ccc(-c2ccn(-c3nc(N4CCOCC4)c4ncc(C5=CCOCC5)cc4n3)n2)cc1 [Compound 29, 4-(7-(3,6-dihydro-2H-pyran-4-yl)-2-(3-(4-methoxyphenyl)-1H-pyrazol-1-yl)pyrido[3,2-d]pyrimidin-4-yl)morpholine] as the molecule, how does the IC50 read?
Answer: 100 to 1000 nM

Question: Which IC50 does the source give for COc1ccc(-c2ccn(-c3nc(N4CCOCC4)c4ncc(C5CCOCC5)cc4n3)n2)cc1 [Compound 30, 4-(2-(3-(4-methoxyphenyl)-1H-pyrazol-1-yl)-7-(tetrahydro-2H-pyran-4-yl)pyrido[3,2-d]pyrimidin-4-yl)morpholine] here?
Answer: 100 to 1000 nM

Question: How did the IC50 turn out when CC1COCCN1c1nc(-n2ccc(-c3ccccc3)n2)nc2cccnc12 (centres unmarked) [Compound 31, 3-methyl-4-(2-(3-phenyl-1H-pyrazol-1-yl)pyrido[3,2-d]pyrimidin-4-yl)morpholine] was run?
Answer: 100 to 1000 nM

Question: With Brc1cnc2c(N3CCOCC3)nc(-n3ccc(-c4ccccc4)n3)nc2c1 [Compound 33, 4-(7-bromo-2-(3-phenyl-1H-pyrazol-1-yl)pyrido[3,2-d]pyrimidin-4-yl)morpholine] as the molecule, how does the IC50 read?
Answer: 100 to 1000 nM

Question: Cc1cnc2c(N3CCOCC3)nc(-n3ccc(-c4ccccc4)n3)nc2c1 [Compound 34, 4-(7-methyl-2-(3-phenyl-1H-pyrazol-1-yl)pyrido[3,2-d]pyrimidin-4-yl)morpholine] was tested. Which IC50 did it give?
Answer: 10 to 100 nM

Question: With COc1ccc(Cc2ccn(-c3nc(N4CCOCC4)c4ncc(C5=CCOCC5)cc4n3)n2)cc1 [Compound 35, 4-(7-(3,6-dihydro-2H-pyran-4-yl)-2-(3-(4-methoxybenzyl)-1H-pyrazol-1-yl)pyrido[3,2-d]pyrimidin-4-yl)morpholine] as the molecule, how does the IC50 read?
Answer: 100 to 1000 nM

Question: Which IC50 does the source give for c1ccc(-c2ccn(-c3nc(N4CCOCC4)c4ncc(C5CCNCC5)cc4n3)n2)cc1 [Compound 36, 4-(2-(3-phenyl-1H-pyrazol-1-yl)-7-(piperidin-4-yl)pyrido[3,2-d]pyrimidin-4-yl)morpholine] here?
Answer: 10 to 100 nM

Question: With CN1CCC(c2cnc3c(N4CCOCC4)nc(-n4ccc(-c5ccccc5)n4)nc3c2)CC1 [Compound 37, 4-(7-(1-methylpiperidin-4-yl)-2-(3-phenyl-1H-pyrazol-1-yl)pyrido[3,2-d]pyrimidin-4-yl)morpholine] as the molecule, how does the IC50 read?
Answer: 10 to 100 nM

Question: With Cc1cc(-c2ccccc2)nn1-c1nc(N2CCOCC2)c2ncccc2n1 [Compound 39, 4-(2-(5-methyl-3-phenyl-1H-pyrazol-1-yl)pyrido[3,2-d]pyrimidin-4-yl)morpholine] as the molecule, how does the IC50 read?
Answer: > 10000 nM

Question: For c1ccc(-c2cnn(-c3nc(N4CCOCC4)c4ncc(N5CCOCC5)cc4n3)c2)cc1 [Compound 40, 4,4′-(2-(4-phenyl-1H-pyrazol-1-yl)pyrido[3,2-d]pyrimidine-4,7-diyl)dimorpholine], which IC50 is on record?
Answer: < 10 nM

Question: How did the IC50 turn out when c1ccc(-c2ccn(-c3nc(N4CCOCC4)c4ncc(N5CCOCC5)cc4n3)n2)cc1 [Compound 41, 4-[4-morpholino-2-(3-phenylpyrazol-1-yl)pyrido[3,2-d]pyrimidin-7-yl]morpholine] was run?
Answer: 10 to 100 nM

Question: How did the IC50 turn out when c1ccc(-c2ccn(-c3nc(N4CCOCC4)c4ncc(N5CCNCC5)cc4n3)n2)cc1 [Compound 42, 4-[2-(3-phenylpyrazol-1-yl)-7-piperazin-1-yl-pyrido[3,2-d]pyrimidin-4-yl]morpholine] was run?
Answer: 10 to 100 nM

Question: COC(=O)c1cnc2c(N3CCOCC3)nc(-n3cc(-c4cccc(OC)c4)cn3)nc2c1 [Compound 43, methyl 2-(4-(3-methoxyphenyl)-1H-pyrazol-1-yl)-4-morpholinopyrido[3,2-d]pyrimidine-7-carboxylate] was tested. Which IC50 did it give?
Answer: < 10 nM

Question: For COc1cccc(-c2cnn(-c3nc(N4CCOCC4)c4ncc(C(=O)O)cc4n3)c2)c1 [Compound 44, 2-(4-(3-methoxyphenyl)-1H-pyrazol-1-yl)-4-morpholinopyrido[3,2-d]pyrimidine-7-carboxylic acid], which IC50 is on record?
Answer: 10 to 100 nM

Question: COc1cccc(-c2cnn(-c3nc(N4CCOCC4)c4ncc(CO)cc4n3)c2)c1 [Compound 45, (2-(4-(3-methoxyphenyl)-1H-pyrazol-1-yl)-4-morpholinopyrido[3,2-d]pyrimidin-7-yl)methanol] was tested. Which IC50 did it give?
Answer: < 10 nM

Question: For Oc1cccc(-c2cnn(-c3nc(N4CCOCC4)c4ncccc4n3)c2)c1 [Compound 46, 3-(1-(4-morpholinopyrido[3,2-d]pyrimidin-2-yl)-1H-pyrazol-4-yl)phenol], which IC50 is on record?
Answer: < 10 nM

Question: Which IC50 does the source give for c1cc(Oc2nc(N3CCOCC3)c3ncccc3n2)cc(-c2cn[nH]c2)c1 [Compound 47, 4-(2-(3-(1H-pyrazol-4-yl)phenoxy)pyrido[3,2-d]pyrimidin-4-yl)morpholine] here?
Answer: > 10000 nM

Question: With c1ccc(-c2ccn(-c3nc(N4CCOCC4)c4ncc(-c5ccncc5)cc4n3)n2)cc1 [Compound 48, 4-(2-(3-phenyl-1H-pyrazol-1-yl)-7-(pyridin-4-yl)pyrido[3,2-d]pyrimidin-4-yl)morpholine] as the molecule, how does the IC50 read?
Answer: 10 to 100 nM
